For series [1], the system named is Mycobacterium tuberculosis. Put plainly: Antimycobacterial activity against Mycobacterium tuberculosis H37Rv assessed as inhibition of bacteria at 12.5 ug/ml measured after 12 to 28 days by Lowenstein-Jensen method relative to control. It is filed as functional. The settings on record: time 12-28 day.
The subject of series [2] is Mycobacterium tuberculosis. Put plainly: Antimycobacterial activity against Mycobacterium tuberculosis H37Rv ATCC 25618 incubated for 5 days by colorimetric microdilution assay. The format is functional. The settings on record: H37Rv ATCC 25618, 120 h, time 5 day. (In general: Broth dilution looks for growth in wells or tubes with falling amounts of substance.)
The subject of series [3] is Mycobacterium tuberculosis. Put plainly: Antimycobacterial activity against Mycobacterium tuberculosis H37Rv incubated for 4 weeks. It is filed as functional. The note with it: 672 h.
Series [4] has as its system Mycobacterium tuberculosis. Nature of the series: Antimycobacterial activity against Mycobacterium tuberculosis H37Rv ATCC 27294 by BACTEC radiometric method. It is filed as functional.
For series [5], the system named is Mycobacterium tuberculosis. Put plainly: Antimycobacterial activity against Mycobacterium tuberculosis H37Rv assessed as growth inhibition at 12.5 ug/ml by BACTEC radiometric method relative to control. The format is functional. The note with it: read-out: GI.
Series [6] deals with Mycobacterium tuberculosis. Put plainly: Antimycobacterial activity against Mycobacterium tuberculosis. It is filed as functional.
The test system of series [7] is Mycobacterium tuberculosis. Put plainly: Antimycobacterial activity against Mycobacterium tuberculosis H37Rv ATCC 27294. The format is functional.
In series [8] the test system is Mycobacterium tuberculosis. Nature of the series: Antimycobacterial activity against Mycobacterium tuberculosis H37Rv assessed as growth inhibition at 50 ug/ml by Lowenstein-Jensen method relative to control. The format is functional. The settings on record: read-out: GI.
Series [9] in a line: Cytotoxicity against African green monkey Vero cells after 72 hrs by cell titer glo luminescent cell viability assay. The format is cell-based. The settings on record: chlorocebus sabaeus.
The subject of series [10] is Mycobacterium tuberculosis. Nature of the series: Antimycobacterial activity against Mycobacterium tuberculosis H37Rv 27294 by microplate alamar blue assay. It is filed as functional.
The subject of series [11] is Mycobacterium tuberculosis. Put plainly: Antimycobacterial activity against Mycobacterium tuberculosis H37Rv assessed as bacterial growth inhibition at 6.25 ug/ml by BACTEC MGIT method relative to control. It is filed as functional.
The subject of series [12] is Mycobacterium tuberculosis. Nature of the series: Antimycobacterial activity against Mycobacterium tuberculosis H37Rv assessed as growth inhibition at 6.25 ug/ml by BACTEC radiometric method relative to control. The settings on record: read-out: GI. It is filed as functional.
Series [13] deals with Mycobacterium tuberculosis. Put plainly: Antimycobacterial activity against Mycobacterium tuberculosis H37Rv incubated for 45 days by Lowenstein-Jensen method. It is filed as functional. The note with it: 1080 h, time 45 day.
Series [14] deals with Mycobacterium tuberculosis. Put plainly: Antimycobacterial activity against Mycobacterium tuberculosis H37Rv measured after 12 to 28 days by Lowenstein-Jensen method. It is filed as functional. The note with it: time 12-28 day.
The subject of series [15] is Mycobacterium tuberculosis. Nature of the series: Antimycobacterial activity against Mycobacterium tuberculosis H37Rv ATCC 27294 assessed as growth inhibition at 12.5 ug/ml by microplate alamar blue assay relative to control. It is filed as functional. The settings on record: read-out: GI. (In general: Alamar Blue is a resazurin reagent that responds to reducing activity.)

In series [16] the test system is Mycobacterium tuberculosis. Nature of the series: Antimycobacterial activity against Mycobacterium tuberculosis by microplate alamar blue assay. The format is functional.
Series [17] deals with Mycobacterium tuberculosis. Nature of the series: Antimycobacterial activity against Mycobacterium tuberculosis H37Ra ATCC 25177 measured on 8th to 12th day by XTT reduction menadione assay. It is filed as functional. The note with it: time 8-12 day. A general note: Formazan colour is commonly taken as a measure of viable cells.
In series [18] the test system is Mycobacterium tuberculosis. Put plainly: Antimycobacterial activity against Mycobacterium tuberculosis Erdman measured up to 2 weeks. It is filed as functional. The settings on record: 336 h, time weeks <=2.
Series [19] relates to Mycobacterium tuberculosis. Put plainly: Antimycobacterial activity against Mycobacterium tuberculosis H37Rv measured after 11 to 12 days. It is filed as functional. The settings on record: time 11-12 day.
Series [20] relates to Mycobacterium tuberculosis. Nature of the series: Antimycobacterial activity against Mycobacterium tuberculosis HN878 measured up to 2 weeks. The note with it: HN878, 336 h, time weeks <=2. It is filed as functional.
In series [21] the test system is Mycobacterium tuberculosis. Put plainly: Antimycobacterial activity against Mycobacterium tuberculosis measured up to 2 weeks. The format is functional. The settings on record: 336 h, time weeks <=2.

Values after ≈ are worked out from the molar mass of the structure shown.

As a reminder, the inhibition is the relative decrease from the control value, in per cent. Usually MIC stands for the least concentration at which growth counts as inhibited. As a reminder, the CC50 is the concentration giving 50% cytotoxicity. A word on the IC90: it is the concentration needed for an effect of 90%.

Consider `O=C1CSC(c2cc3ccccc3nc2Cl)N1c1ccc(F)cc1` (stereo unspecified), for which the inhibition at 12.5 µg/mL in series [1] came out at 99%.
Regarding `C/C(=N/N=C1\NC(=O)CS1)c1cc2ccccc2oc1=O`, in [2], the MIC stood at 83 µg/mL (≈ 275 µM).
In the case of `O=C(CNNC(=O)c1ccncc1)COc1ccc(/C=C2\SC(=O)NC2=O)cc1`, in series [3], the lowest concentration to inhibit growth (MIC) was 50 µg/mL (≈ 121 µM).
On the same count and under the same terms, for `COc1ccc(/C=C2\SC(=O)N(CNNC(=O)c3ccncc3)C2=O)cc1` the value was 50 µg/mL (≈ 130 µM).
In turn, `N#Cc1ccc(C2SCC(=O)N2NC(=O)c2[nH]c3ccc(F)cc3c2-c2ccccc2)cc1` (stereo unspecified) yielded an MIC in [4] of 6.25 µg/mL (≈ 13.7 µM).
Still for that read-out and setting: for `O=C(NN1C(=O)CSC1c1ccc([N+](=O)[O-])cc1)c1[nH]c2ccc(F)cc2c1-c1ccccc1` (stereo unspecified) the value was 6.25 µg/mL (≈ 13.1 µM).
As to `Cc1ccc(N2C(=O)CSC23C(=O)Nc2ccc(C)cc23)cc1` (stereo unspecified), the inhibition of growth at 12.5 µg/mL in [5] was 90%.
As for `O=C(O)c1ccc(N2C(=O)CSC23C(=O)Nc2ccc(F)cc23)cc1O` (stereo unspecified), the inhibition of growth at 12.5 µg/mL in series [5] is 98%.
Consider `Cc1nc(/N=C2\C(=O)Nc3ccccc32)sc1C(=O)NN1C(=O)CSC1c1ccccc1Cl` (stereo unspecified), for which, in series [6], the MIC stood at 0.78 µM (≈ 0.388 µg/mL).
For the molecule `CCn1c(C(=O)NN2C(=O)CSC2c2ccc([N+](=O)[O-])cc2)cc(=O)c2cc(F)c(N3CCNCC3)cc21` (stereo unspecified), the MIC in series [7] came to 16.3 µM (≈ 8.8 µg/mL).
Consider `O=C(NCCCN1c2ccccc2Sc2ccccc21)N1C(=O)/C(=C/c2ccc([N+](=O)[O-])cc2)SC1c1ccc([N+](=O)[O-])cc1` (stereo unspecified), for which the inhibition of growth at 50 µg/mL in [8] came out at 82%.
`CCN1C(=O)/C(=C/c2ccccc2F)S/C1=N/NC(=O)c1ccncc1` had a CC50 at 72 h in series [9] of 22.8 µg/mL (≈ 61.4 µM). Also, the IC90 in series [10] is 2.95 µg/mL (≈ 7.97 µM).
For `O=C1CSC(c2ccccc2)N1C(=O)NCCCN1c2ccccc2Sc2ccccc21` (stereo unspecified), the inhibition of growth at 50 µg/mL in [8] amounted to 75%.
Turning to `Cc1nc2ccccc2c(=O)n1CCNC1=NC(=O)/C(=C/c2cccc(Cl)c2)S1`, the inhibition at 6.25 µg/mL in series [11] worked out at 99%.
Turning to `COc1ccc(C(=O)Nc2ccc(C(=O)NN3C(=O)CSC3c3ccccc3)cc2)cc1` (stereo unspecified), in [12], the inhibition of growth at 6.25 µg/mL turned out to be 90%.
In [13], `CC1Oc2ccccc2C=C1/C=C1\SC(=S)NC1=O` (stereo unspecified) registered a minimum inhibitory concentration (MIC) of 0.36 µM (≈ 0.104 µg/mL).
`N#CSc1ccc2nc(NC(=O)CN3C(=O)/C(=C/c4cccc(Br)c4)SC3=S)sc2c1` had a minimum inhibitory concentration (MIC) in series [14] of 25 µg/mL (≈ 45.7 µM).
On to `O=C1CSC(c2c(-c3ccccc3)[nH]c3ccc(Cl)cc23)N1c1nc(-c2cc3cc(Br)ccc3oc2=O)cs1` (stereo unspecified), for which the inhibition of growth at 12.5 µg/mL in series [15] is 80%.
`COc1ccc(/C=C2\SC(=S)N(Cc3nnc(-c4cccnc4SCc4ccccc4)o3)C2=O)cc1`: the inhibition of growth at 50 µg/mL in [8] amounted to 99%.
The molecule `O=C(NN1C(=O)CSC1c1cccc([N+](=O)[O-])c1)c1coc2ccc3ccccc3c12` (stereo unspecified) had an MIC in series [16] of 50 µg/mL (≈ 115 µM).
In [17], `Cc1cc(NS(=O)(=O)c2ccc(N3C(=O)CSC3c3ccc(Cl)cc3)cc2)no1` (stereo unspecified) had a concentration for an effect of 90% (IC90) of 0.43 µg/mL (≈ 0.956 µM).
Consider `O=C1/C(=C/c2ccc(F)cc2)SC(=S)N1Cc1nnc(-c2cccnc2SCc2ccccc2)o1`, for which, in [8], the inhibition of growth at 50 µg/mL was found to be 99%.
In series [6], `Cc1nc(/N=C2\C(=O)Nc3ccccc32)sc1C(=O)NN1C(=O)CSC1c1ccc(F)cc1` (stereo unspecified) displayed a minimal inhibitory concentration (MIC) of 0.78 µM (≈ 0.376 µg/mL).
Turning to `O=C(O)CCCCCC1NC(=O)CS1` (stereo unspecified), the MIC in series [18] was determined as 1.56 µM (≈ 0.339 µg/mL); in series [19] it was 1.56 µM (≈ 0.339 µg/mL); in [20], 0.6 µM (≈ 0.13 µg/mL); in series [21], 0.096 µM (≈ 0.0209 µg/mL).
On to `Cc1cc(C)c2c(c1)C1(SCC(=O)N1c1ccccc1C(=O)O)C(=O)N2` (stereo unspecified), for which the inhibition of growth at 12.5 µg/mL in [5] was found to be 90%.
For the molecule `CCN1C(=O)/C(=C/c2ccc(F)cc2)S/C1=N/NC(=O)c1ccncc1`, it took 9.69 µg/mL (≈ 26.2 µM) to reach half-maximal cytotoxicity in series [9] (CC50 at 72 h). The same molecule came in with an IC90 in [10] of 2.95 µg/mL (≈ 7.97 µM).

The values above are taken from ChEMBL document CHEMBL4813957, “Antitubercular properties of thiazolidin-4-ones - A review” (Eur J Med Chem, 2021).
